Measurements: the kinase profiling compilation of Christmann-Franck et al. (2016)

Columns and labels:
Assay in all cases: KINOMEscan competition binding
Conditions in all cases: compound 10.0 µM
[1] = test system: EGFR (human), P00533 [T790M]
MAP3K12 (human) = MAP3K12 (human) (UniProt Q12852)
ULK2 (human) = ULK2 (human) (UniProt Q8IYT8)
TEC (human) = TEC (human) (UniProt P42680)
CIT (human) = CIT (human) (UniProt O14578)
PHKG1 (human) = PHKG1 (human) (UniProt Q16816)
CAMK2G (human) = CAMK2G (human) (UniProt Q13555)
TSSK1B (human) = TSSK1B (human) (UniProt Q9BXA7)
NEK9 (human) = NEK9 (human) (UniProt Q8TD19)
PIP4K2B (human) = PIP4K2B (human) (UniProt P78356)
PTK2B (human) = PTK2B (human) (UniProt Q14289)
MKNK1 (human) = MKNK1 (human) (UniProt Q9BUB5)
RPS6KA2 KD2 (human) = RPS6KA2 KD2 (human) (UniProt Q15349)
MST1R (human) = MST1R (human) (UniProt Q04912)
RIOK1 (human) = RIOK1 (human) (UniProt Q9BRS2)
CPK1 (P.falciparum) = test system: CPK1 (P.falciparum)
AURKA (human) = AURKA (human) (UniProt O14965)
MAP2K6 (human) = MAP2K6 (human) (UniProt P52564)
ACVRL1 (human) = ACVRL1 (human) (UniProt P37023)
MAPK6 (human) = MAPK6 (human) (UniProt Q16659)
CSNK1A1 (human) = CSNK1A1 (human) (UniProt P48729)
PHKG2 (human) = PHKG2 (human) (UniProt P15735)
RPS6KA4 KD2 (human) = RPS6KA4 KD2 (human) (UniProt O75676)
RPS6KA6 KD1 (human) = RPS6KA6 KD1 (human) (UniProt Q9UK32)
RPS6KA6 KD2 (human) = RPS6KA6 KD2 (human) (UniProt Q9UK32)
CDK4 CCND3 (human) = CDK4 CCND3 (human) (UniProt P11802+P30281)
MAP2K5 (human) = MAP2K5 (human) (UniProt Q13163)
LATS1 (human) = LATS1 (human) (UniProt O95835)
YES1 (human) = YES1 (human) (UniProt P07947)
[2] = biological target: TYK2 JH1 catalytic (human) (UniProt P29597)
CDK3 (human) = CDK3 (human) (UniProt Q00526)
CDK2 (human) = CDK2 (human) (UniProt P24941)
EIF2AK2 (human) = EIF2AK2 (human) (UniProt P19525)
SLK (human) = SLK (human) (UniProt Q9H2G2)
Sequence of SLK (human) (Q9H2G2 whole entry, looked up): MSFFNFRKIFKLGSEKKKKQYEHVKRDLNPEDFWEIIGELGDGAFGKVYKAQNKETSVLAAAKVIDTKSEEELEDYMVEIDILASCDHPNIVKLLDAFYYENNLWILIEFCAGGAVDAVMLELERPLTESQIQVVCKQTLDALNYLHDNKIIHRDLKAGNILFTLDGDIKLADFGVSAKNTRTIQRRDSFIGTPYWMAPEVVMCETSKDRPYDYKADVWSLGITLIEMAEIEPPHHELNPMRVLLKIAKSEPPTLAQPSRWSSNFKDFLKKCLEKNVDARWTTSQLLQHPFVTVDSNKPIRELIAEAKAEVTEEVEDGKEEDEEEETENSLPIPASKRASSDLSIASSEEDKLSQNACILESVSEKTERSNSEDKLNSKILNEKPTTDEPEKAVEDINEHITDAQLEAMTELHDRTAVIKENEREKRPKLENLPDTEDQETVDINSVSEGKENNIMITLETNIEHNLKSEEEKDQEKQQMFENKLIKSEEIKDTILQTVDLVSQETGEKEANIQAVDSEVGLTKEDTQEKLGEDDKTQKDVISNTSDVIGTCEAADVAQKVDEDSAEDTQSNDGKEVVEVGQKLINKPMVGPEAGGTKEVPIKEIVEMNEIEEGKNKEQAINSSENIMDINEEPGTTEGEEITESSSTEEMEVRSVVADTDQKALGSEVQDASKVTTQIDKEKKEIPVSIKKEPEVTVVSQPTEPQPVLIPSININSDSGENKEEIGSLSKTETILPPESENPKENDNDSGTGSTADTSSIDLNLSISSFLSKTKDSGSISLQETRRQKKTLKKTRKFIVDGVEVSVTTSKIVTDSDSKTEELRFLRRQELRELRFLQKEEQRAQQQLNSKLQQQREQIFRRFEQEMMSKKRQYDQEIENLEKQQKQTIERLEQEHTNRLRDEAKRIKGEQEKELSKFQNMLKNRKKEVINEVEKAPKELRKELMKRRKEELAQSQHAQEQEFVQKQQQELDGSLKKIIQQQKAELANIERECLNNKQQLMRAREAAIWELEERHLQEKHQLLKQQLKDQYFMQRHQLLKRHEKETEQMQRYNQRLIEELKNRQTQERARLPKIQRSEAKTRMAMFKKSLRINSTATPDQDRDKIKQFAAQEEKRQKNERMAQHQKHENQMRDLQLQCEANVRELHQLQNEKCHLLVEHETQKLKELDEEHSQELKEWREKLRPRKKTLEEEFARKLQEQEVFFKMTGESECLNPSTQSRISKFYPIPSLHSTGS

Sequence of YES1 (human) (P07947 whole entry, looked up): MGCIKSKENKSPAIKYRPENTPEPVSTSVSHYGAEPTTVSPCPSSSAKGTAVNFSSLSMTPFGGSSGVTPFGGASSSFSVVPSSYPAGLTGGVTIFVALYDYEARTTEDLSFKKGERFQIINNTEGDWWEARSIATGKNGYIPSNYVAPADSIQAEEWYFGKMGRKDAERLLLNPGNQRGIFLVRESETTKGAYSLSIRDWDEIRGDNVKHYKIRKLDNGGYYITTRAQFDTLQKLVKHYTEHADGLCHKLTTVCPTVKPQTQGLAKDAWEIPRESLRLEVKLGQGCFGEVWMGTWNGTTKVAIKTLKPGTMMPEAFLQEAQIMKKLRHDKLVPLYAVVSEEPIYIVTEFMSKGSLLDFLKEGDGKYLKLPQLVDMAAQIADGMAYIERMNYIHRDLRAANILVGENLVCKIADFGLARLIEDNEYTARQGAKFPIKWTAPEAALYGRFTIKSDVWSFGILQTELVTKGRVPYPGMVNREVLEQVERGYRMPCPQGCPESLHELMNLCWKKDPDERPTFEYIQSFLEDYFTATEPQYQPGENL
Sequence of CDK4 CCND3 (human) (P11802 whole entry, looked up): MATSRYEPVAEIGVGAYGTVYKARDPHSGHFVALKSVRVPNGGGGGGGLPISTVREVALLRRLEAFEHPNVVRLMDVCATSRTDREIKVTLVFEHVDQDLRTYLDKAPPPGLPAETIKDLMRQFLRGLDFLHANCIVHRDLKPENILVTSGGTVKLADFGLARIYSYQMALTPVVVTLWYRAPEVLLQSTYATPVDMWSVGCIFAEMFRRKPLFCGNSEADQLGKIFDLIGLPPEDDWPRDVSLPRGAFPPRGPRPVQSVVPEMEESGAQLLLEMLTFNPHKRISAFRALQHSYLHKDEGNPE
Sequence of CDK4 CCND3 (human) (P30281 whole entry, looked up): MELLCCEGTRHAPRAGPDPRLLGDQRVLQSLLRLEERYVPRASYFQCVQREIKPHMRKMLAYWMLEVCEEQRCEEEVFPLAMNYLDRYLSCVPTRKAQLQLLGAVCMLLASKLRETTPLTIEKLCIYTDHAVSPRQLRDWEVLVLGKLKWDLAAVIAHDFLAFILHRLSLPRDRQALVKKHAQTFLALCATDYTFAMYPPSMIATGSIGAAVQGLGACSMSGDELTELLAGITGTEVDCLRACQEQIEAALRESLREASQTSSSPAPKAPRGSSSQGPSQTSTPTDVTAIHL
Sequence of MAP2K6 (human) (P52564 whole entry, looked up): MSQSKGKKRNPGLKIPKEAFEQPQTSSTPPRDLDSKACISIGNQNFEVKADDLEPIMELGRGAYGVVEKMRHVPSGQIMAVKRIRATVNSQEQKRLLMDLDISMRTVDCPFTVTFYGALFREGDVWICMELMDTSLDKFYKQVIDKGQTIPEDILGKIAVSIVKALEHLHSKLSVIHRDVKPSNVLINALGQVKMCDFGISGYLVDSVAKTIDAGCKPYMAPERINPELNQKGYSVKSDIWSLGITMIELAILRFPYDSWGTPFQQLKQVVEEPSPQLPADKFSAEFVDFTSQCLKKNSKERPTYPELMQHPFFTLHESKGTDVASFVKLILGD
Sequence of CIT (human) (O14578 whole entry, looked up): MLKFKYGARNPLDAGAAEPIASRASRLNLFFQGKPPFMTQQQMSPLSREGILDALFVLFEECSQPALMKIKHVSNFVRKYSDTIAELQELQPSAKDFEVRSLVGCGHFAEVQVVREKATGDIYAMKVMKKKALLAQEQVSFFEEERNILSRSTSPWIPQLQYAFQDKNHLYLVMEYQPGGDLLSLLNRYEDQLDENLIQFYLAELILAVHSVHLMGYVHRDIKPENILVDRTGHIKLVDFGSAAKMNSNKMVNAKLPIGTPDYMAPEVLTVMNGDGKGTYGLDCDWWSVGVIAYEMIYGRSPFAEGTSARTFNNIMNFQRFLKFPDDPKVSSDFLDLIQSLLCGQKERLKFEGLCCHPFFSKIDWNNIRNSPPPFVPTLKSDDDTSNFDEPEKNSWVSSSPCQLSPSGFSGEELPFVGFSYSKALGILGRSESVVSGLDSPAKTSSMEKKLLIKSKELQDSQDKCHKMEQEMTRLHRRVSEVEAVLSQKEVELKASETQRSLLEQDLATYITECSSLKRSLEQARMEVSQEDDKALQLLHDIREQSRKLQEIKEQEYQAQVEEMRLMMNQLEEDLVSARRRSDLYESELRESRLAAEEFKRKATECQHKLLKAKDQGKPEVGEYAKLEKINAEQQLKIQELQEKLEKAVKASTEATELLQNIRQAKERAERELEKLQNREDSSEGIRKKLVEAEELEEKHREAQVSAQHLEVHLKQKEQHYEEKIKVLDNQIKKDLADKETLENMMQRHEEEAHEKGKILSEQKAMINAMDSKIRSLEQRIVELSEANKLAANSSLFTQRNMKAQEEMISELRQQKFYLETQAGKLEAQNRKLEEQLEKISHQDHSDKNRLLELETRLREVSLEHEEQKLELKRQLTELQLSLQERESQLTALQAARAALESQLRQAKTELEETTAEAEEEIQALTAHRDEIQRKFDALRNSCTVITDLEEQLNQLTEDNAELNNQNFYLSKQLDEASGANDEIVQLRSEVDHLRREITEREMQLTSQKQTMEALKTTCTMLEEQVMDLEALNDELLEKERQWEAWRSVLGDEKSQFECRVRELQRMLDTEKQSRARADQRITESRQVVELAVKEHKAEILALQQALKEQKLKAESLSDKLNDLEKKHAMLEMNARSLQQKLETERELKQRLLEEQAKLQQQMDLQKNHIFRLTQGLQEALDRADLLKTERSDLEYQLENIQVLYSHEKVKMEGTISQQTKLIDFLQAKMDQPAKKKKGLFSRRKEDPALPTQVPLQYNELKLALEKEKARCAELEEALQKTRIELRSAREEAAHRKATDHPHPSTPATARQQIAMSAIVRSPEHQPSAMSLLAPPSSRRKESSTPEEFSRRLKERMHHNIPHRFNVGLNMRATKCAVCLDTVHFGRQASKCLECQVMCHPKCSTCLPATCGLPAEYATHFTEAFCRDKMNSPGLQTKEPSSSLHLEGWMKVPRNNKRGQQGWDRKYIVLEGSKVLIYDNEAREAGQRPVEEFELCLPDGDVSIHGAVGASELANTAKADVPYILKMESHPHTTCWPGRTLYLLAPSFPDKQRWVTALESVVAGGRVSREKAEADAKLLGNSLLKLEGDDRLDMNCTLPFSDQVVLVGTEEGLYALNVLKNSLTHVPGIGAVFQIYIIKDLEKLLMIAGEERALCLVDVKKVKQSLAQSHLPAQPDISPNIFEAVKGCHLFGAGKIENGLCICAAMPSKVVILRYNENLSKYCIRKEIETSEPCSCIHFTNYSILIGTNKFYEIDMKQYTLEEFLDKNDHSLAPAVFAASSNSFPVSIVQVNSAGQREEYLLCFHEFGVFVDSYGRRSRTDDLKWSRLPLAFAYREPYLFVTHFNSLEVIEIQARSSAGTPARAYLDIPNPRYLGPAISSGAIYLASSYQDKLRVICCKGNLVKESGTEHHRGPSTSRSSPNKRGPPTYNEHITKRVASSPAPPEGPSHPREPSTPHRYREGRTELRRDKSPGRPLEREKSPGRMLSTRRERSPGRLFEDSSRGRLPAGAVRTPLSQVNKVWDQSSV
Sequence of CSNK1A1 (human) (P48729 whole entry, looked up): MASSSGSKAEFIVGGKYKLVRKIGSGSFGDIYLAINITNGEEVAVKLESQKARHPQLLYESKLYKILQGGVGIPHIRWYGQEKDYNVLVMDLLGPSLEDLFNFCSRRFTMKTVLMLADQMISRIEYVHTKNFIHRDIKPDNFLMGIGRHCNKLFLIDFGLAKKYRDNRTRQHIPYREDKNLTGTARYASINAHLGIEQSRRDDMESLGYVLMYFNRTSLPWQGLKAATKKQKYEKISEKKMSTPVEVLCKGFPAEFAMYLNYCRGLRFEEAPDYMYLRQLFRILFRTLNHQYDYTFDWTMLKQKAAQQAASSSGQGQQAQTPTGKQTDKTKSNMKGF

Compound	kinase still bound, per cent of control [1]	kinase still bound, per cent of control (MAP3K12 (human))	kinase still bound, per cent of control (ULK2 (human))	kinase still bound, per cent of control (TEC (human))	kinase still bound, per cent of control (CIT (human))	kinase still bound, per cent of control (PHKG1 (human))	kinase still bound, per cent of control (CAMK2G (human))	kinase still bound, per cent of control (TSSK1B (human))	kinase still bound, per cent of control (NEK9 (human))	kinase still bound, per cent of control (PIP4K2B (human))	kinase still bound, per cent of control (PTK2B (human))	kinase still bound, per cent of control (MKNK1 (human))	kinase still bound, per cent of control (RPS6KA2 KD2 (human))	kinase still bound, per cent of control (MST1R (human))	kinase still bound, per cent of control (RIOK1 (human))	kinase still bound, per cent of control (CPK1 (P.falciparum))	kinase still bound, per cent of control (AURKA (human))	kinase still bound, per cent of control (MAP2K6 (human))	kinase still bound, per cent of control (ACVRL1 (human))	kinase still bound, per cent of control (MAPK6 (human))	further results
O=C(Nc1cccc(Nc2ncc(Br)c(NCCc3cnc[nH]3)n2)c1)N1CCCC1	2%	21%	0.3%	47%	0.75%	2.3%	52%	48%	4.6%	0.55%	8.2%	100%	4.8%	70%	0%	3.8%	1.6%	22%	100%	5%	kinase still bound, per cent of control (CSNK1A1 (human)): 28%; kinase still bound, per cent of control (PHKG2 (human)): 8.9%; kinase still bound, per cent of control (RPS6KA4 KD2 (human)): 0.95%; kinase still bound, per cent of control (RPS6KA6 KD1 (human)): 0.6%; kinase still bound, per cent of control (RPS6KA6 KD2 (human)): 10%; kinase still bound, per cent of control (CDK4 CCND3 (human)): 0.35%; kinase still bound, per cent of control (MAP2K5 (human)): 0.6%; kinase still bound, per cent of control (LATS1 (human)): 21%; kinase still bound, per cent of control (YES1 (human)): 31%; kinase still bound, per cent of control [2]: 0%; kinase still bound, per cent of control (CDK3 (human)): 62%; kinase still bound, per cent of control (CDK2 (human)): 43%; kinase still bound, per cent of control (EIF2AK2 (human)): 31%; kinase still bound, per cent of control (SLK (human)): 0.35%
COc1ccc(N(C(=O)Oc2c(C)cccc2C)c2ccnc(Nc3ccc(N4CCN(C)CC4)cc3)n2)c(OC)c1	2.2%	73%	38%	3.7%	3.8%	12%	100%	87%	100%	5.4%	9%	98%	78%	16%	5.8%	5%	6.8%	66%	2.7%	100%	kinase still bound, per cent of control (CSNK1A1 (human)): 71%; kinase still bound, per cent of control (PHKG2 (human)): 100%; kinase still bound, per cent of control (RPS6KA4 KD2 (human)): 100%; kinase still bound, per cent of control (RPS6KA6 KD1 (human)): 40%; kinase still bound, per cent of control (RPS6KA6 KD2 (human)): 67%; kinase still bound, per cent of control (CDK4 CCND3 (human)): 26%; kinase still bound, per cent of control (MAP2K5 (human)): 0.55%; kinase still bound, per cent of control (LATS1 (human)): 78%; kinase still bound, per cent of control (YES1 (human)): 0.05%; kinase still bound, per cent of control [2]: 45%; kinase still bound, per cent of control (CDK3 (human)): 100%; kinase still bound, per cent of control (CDK2 (human)): 65%; kinase still bound, per cent of control (EIF2AK2 (human)): 92%; kinase still bound, per cent of control (SLK (human)): 0.1%
COc1cc(C(=O)N2CCC(N3CCN(C)CC3)CC2)ccc1Nc1ncc2c(n1)N(C)c1ccccc1C(=O)N2C	88%	81%	67%	100%	99%	54%	47%	60%	100%	100%	78%	50%	7.5%	98%	100%	100%	1.2%	83%	100%	100%	kinase still bound, per cent of control (CSNK1A1 (human)): 100%; kinase still bound, per cent of control (PHKG2 (human)): 33%; kinase still bound, per cent of control (RPS6KA4 KD2 (human)): 46%; kinase still bound, per cent of control (RPS6KA6 KD1 (human)): 92%; kinase still bound, per cent of control (RPS6KA6 KD2 (human)): 2.2%; kinase still bound, per cent of control (CDK4 CCND3 (human)): 100%; kinase still bound, per cent of control (MAP2K5 (human)): 85%; kinase still bound, per cent of control (LATS1 (human)): 100%; kinase still bound, per cent of control (YES1 (human)): 100%; kinase still bound, per cent of control [2]: 52%; kinase still bound, per cent of control (CDK3 (human)): 100%; kinase still bound, per cent of control (CDK2 (human)): 100%; kinase still bound, per cent of control (EIF2AK2 (human)): 84%; kinase still bound, per cent of control (SLK (human)): 100%
